Assay results taken from ChEMBL document CHEMBL5550133, “Update on the development of TGR5 agonists for human diseases” (Eur J Med Chem, 2024).
Values after ≈ are worked out from the molar mass of the structure shown. One block for each molecule: values may come before it.

Assays:
[1] = target: T1, G-protein coupled bile acid receptor 1 (Homo sapiens) (UniProt Q8TDU6); assay: Agonist activity at TGR5 in human NCI-H716 cells assessed as increase in GLP-1 secretion at 5 uM measured for 60 mins by SEAP reporter gene based assay relative to control; format: functional, cell-based; details: filed as agonist
T1 sequence (whole entry): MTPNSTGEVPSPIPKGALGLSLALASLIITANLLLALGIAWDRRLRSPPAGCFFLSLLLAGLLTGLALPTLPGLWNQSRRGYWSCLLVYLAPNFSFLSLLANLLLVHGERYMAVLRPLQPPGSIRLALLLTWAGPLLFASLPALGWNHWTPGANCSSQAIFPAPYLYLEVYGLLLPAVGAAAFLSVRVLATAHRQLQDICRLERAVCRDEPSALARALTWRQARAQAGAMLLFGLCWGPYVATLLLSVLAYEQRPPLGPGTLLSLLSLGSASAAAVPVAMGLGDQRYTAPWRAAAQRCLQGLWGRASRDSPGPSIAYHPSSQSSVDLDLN

[2] = target: T2, G-protein coupled bile acid receptor 1 (Homo sapiens, UniProt Q8TDU6); assay: Agonist activity at TGR5 (unknown origin) expressed in HEK293 cells; format: functional, cell-based
T2 sequence (Q8TDU6 whole entry): T1 sequence (whole entry)

Cytochrome P450 2C9 = Cytochrome P450 2C9 (Homo sapiens, UniProt P11712); assay: Inhibition of CYP2C9 (unknown origin); format: ADME
Cytochrome P450 3A4 = Cytochrome P450 3A4 (Homo sapiens, UniProt P08684); assay: Inhibition of CYP3A4 (unknown origin); format: ADME
[3] = Clearance in human liver microsomes; format: ADME, Microsome; details: read-out: CLH
[4] = target: T3, G-protein coupled bile acid receptor 1 (Mus musculus, UniProt Q80SS6); assay: Agonist activity at mouse TGR5 receptor; format: functional
T3 sequence (Q80SS6 whole entry): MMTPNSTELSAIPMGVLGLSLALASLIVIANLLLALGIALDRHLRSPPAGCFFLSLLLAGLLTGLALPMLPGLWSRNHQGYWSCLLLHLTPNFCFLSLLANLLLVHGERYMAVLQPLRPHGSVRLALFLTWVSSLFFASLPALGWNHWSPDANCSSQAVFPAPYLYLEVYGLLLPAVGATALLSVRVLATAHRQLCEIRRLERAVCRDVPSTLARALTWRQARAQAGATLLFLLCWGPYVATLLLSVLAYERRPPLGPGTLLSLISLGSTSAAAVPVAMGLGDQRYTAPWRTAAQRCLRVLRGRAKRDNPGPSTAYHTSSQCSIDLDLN

[5] = target: T2, G-protein coupled bile acid receptor 1; assay: Agonist activity at TGR5 (unknown origin); format: functional
[6] = target: T2, G-protein coupled bile acid receptor 1; assay: Agonist activity at TGR5 (unknown origin) in CHO-K1 cells; format: functional, cell-based
[7] = target: T2, G-protein coupled bile acid receptor 1; assay: Agonist activity at TGR5 in HEK293 cells; format: functional, cell-based
[8] = target: T2, G-protein coupled bile acid receptor 1; assay: Agonist activity at human TGR5; format: functional
[9] = target: T3, G-protein coupled bile acid receptor 1; assay: Agonist activity at mouse TGR5 receptor expressed in HEK293 cells assessed as activation of intracellular cAMP production incubated for 2 hrs by luciferase reporter gene assay; format: functional, cell-based
[10] = target: CYP450 (isoform not specified) (Homo sapiens, UniProt P04798+P05177+P05181+P08684+P10632+P10635+P11509+P11712+P13584+P20813+P20815+P20853+P24462+P24903+P33260+P33261+P51589+P78329+P98187+Q02928+Q08477+Q16678+Q16696+Q5TCH4+Q6VVX0+Q7Z449+Q8TAV3+Q96SQ9+Q9HB55); assay: Inhibition of CYP450 (unknown origin); format: ADME, protein assay
[11] = Aqueous solubility of compound; format: physicochemical; details: aqueous (not further specified)
[12] = Oral bioavailability in mouse at 2 mg/kg; format: ADME, organism-based; details: in vivo
[13] = target: T2, G-protein coupled bile acid receptor 1; assay: Agonist activity at TGR5 receptor in human NCI-H716 cells assessed as activation of intracellular cAMP production incubated for 1 hr by TR-FRET assay; format: functional, cell-based

Sequence of Cytochrome P450 3A4 (P08684 whole entry): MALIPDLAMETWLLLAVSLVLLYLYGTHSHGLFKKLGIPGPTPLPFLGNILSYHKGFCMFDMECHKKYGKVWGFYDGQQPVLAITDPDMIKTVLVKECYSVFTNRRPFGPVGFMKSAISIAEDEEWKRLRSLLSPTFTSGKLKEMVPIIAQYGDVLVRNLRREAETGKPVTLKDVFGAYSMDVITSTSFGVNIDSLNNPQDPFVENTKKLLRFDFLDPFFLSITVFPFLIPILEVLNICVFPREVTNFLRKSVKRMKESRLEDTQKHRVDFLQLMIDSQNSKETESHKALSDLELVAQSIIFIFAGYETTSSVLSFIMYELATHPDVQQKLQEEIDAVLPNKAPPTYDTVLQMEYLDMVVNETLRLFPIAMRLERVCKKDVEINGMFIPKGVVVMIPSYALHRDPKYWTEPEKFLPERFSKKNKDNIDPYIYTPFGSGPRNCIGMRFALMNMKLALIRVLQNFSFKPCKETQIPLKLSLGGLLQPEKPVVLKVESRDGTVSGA
Sequence of Cytochrome P450 2C9 (P11712 whole entry): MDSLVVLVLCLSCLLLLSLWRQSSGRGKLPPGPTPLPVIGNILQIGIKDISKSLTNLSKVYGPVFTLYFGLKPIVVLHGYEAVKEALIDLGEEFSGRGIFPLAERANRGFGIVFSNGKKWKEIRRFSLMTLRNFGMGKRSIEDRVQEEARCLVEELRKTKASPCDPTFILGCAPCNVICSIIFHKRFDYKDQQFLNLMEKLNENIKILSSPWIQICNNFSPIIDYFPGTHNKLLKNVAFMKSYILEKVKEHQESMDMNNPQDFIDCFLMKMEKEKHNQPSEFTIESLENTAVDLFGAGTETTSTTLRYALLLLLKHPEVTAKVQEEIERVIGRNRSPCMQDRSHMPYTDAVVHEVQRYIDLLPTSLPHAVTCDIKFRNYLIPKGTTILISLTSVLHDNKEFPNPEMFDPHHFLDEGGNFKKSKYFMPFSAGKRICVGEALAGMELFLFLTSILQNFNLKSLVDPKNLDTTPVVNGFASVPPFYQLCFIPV

SMILES: O=C(Nc1nnn[nH]1)c1cc(Cl)c(Oc2ncccc2C(=O)N2CCN(C3CC3)c3ccccc32)cc1Cl
EC50 [2]: 70 nM
IC50 (Cytochrome P450 2C9): > 10000 nM
IC50 (Cytochrome P450 3A4): > 10000 nM
CLint scaled [3]: 56 mL/min/kg

SMILES: CO[C@H]1C[C@H]2[C@@H]([C@H](OC)C[C@@H]3C[C@H](O)CC[C@@]32C)[C@@H]2CC[C@H]([C@H](C)CCC(=O)N3CCCC3)[C@@]12C
EC50 [5]: 150 nM

SMILES: C[C@H]1[C@H](C)CC[C@]2(C(=O)O)CC[C@]3(C)C(=CC[C@@H]4[C@@]5(C)C[C@@H](O)[C@H](O)C(C)(C)[C@@H]5CC[C@]43C)[C@H]12 [COROSOLIC ACID]
EC50 [6]: 500 nM

SMILES: CC(C)[C@@H](CO)NC(=O)CC[C@@H](C)[C@H]1CC[C@H]2[C@@H]3[C@@H](OC=O)C[C@@H]4C[C@H](OC=O)CC[C@]4(C)[C@H]3CC[C@]12C
EC50 [7]: 110 nM

SMILES: O=C(c1cccnc1Oc1cc(Cl)ccc1Cl)N1CCN(C2COC2)c2ccccc21
EC50 [2]: 10 nM
IC50 (Cytochrome P450 2C9): 8200 nM
IC50 (Cytochrome P450 3A4): 300 nM
EC50 [4]: 520 nM
CLint scaled [3]: 578 mL/min/kg

SMILES: CN(CC[N+](C)(C)C)C(=O)CCc1cc(Cl)c(Oc2ccsc2C(=O)N2CCSc3ccccc32)cc1Cl
EC50 [9]: 74 nM

SMILES: CCc1onc(-c2ccccc2)c1C(=O)N(C)c1ccc(Cl)cc1
IC50 [10]: 251 nM

SMILES: CC1(C)CC[C@]2(C(=O)O)CC[C@]3(C)C(=CC[C@@H]4[C@@]5(C)C[C@@H](O)[C@H](O)C(C)(C)[C@@H]5CC[C@]43C)[C@@H]2C1 [MASLINIC ACID]
EC50 [6]: 3700 nM

SMILES: Cc1cc(/C(C[C@H](c2ccc(C3CCC(C(=O)O)CC3)cc2)c2ccccc2C)=N\O)ccn1 (stereo partly specified)
bioavailability [12]: 100%

SMILES: COc1ccc(S(=O)(=O)N2CCCN(S(=O)(=O)c3ccc(OC)c(OC)c3)CC2)cc1OC [SB-756050]
EC50 [13]: 1300 nM

The next lines start with the values.

Activity [1]: 111%
SMILES: CC(c1cc(C(F)(F)F)cc(C(F)(F)F)c1)N1CCOc2nccc(-c3ccccc3)c2C1 (stereo unspecified)

EC50 [4]: 249 nM
SMILES: Fc1cccc(F)c1-c1ccncc1CN1C(c2ccco2)=NO[C@@H]1c1cc(C(F)(F)F)cc(C(F)(F)F)c1Cl

EC50 [4]: 150 nM
EC50 [8]: 35 nM
SMILES: CN(Cc1cnccc1-c1ccccc1F)C(C#N)c1cc(C(F)(F)F)cc(C(F)(F)F)c1 (stereo unspecified)

Activity [1]: 165%
SMILES: COC(=O)NCc1cccc([C@H]2O[C@H](CC(=O)NCc3ccccc3F)C(=O)N(CC(C)(C)COC(C)=O)c3ccc(Cl)cc32)c1

IC50 (Cytochrome P450 2C9): 2200 nM
IC50 (Cytochrome P450 3A4): 5900 nM
solubility [11]: 1 µg/mL (≈ 2.51 µM)
SMILES: O=C(c1cccnc1Oc1cccc(C(F)(F)F)c1)N1CCCc2ccccc21

EC50 [4]: 0.5 nM
SMILES: COc1cc(-n2c(N(C)c3ccc(OC)c(OC)c3)cnc2SCc2c(F)cc(OCCCS(=O)(=O)O)cc2F)ccc1F
